In publication PMC11083148, “Structure–Activity Relationship Studies on Highly Functionalized Pyrazole Hydrazones and Amides as Antiproliferative and Antioxidant Agents” (International Journal of Molecular Sciences, 2024):

Key:
SK-BR3 = test: MTT assay, antiproliferative activity; type: cell-based; details: for Mean growth percentage at 10 µM: Homo sapiens, SK-BR-3, 48h
Method: (§1) Pyrazole acylhydrazones 10–13 and amides 14–22 were tested by MTT assay to evaluate their antiproliferative and cytotoxicity properties against a panel of eight tumor cell lines and normal fibroblasts.
(§2) All reagents were purchased from EuroClone, Milan, Italy). The following cell lines were used for MTT assays: SKOV-3 (ovarian adenocarcinoma, ATCC, Manassas, VA, USA); MCF-7 (breast adenocarcinoma, Biologic Bank and Cell Factory, IRCCS Policlinico San Martino, Genoa, Italy); Hep-G2 (hepatocellular carcinoma, ATCC, Manassas, VA, USA); SK-MEL28 (skin melanoma, Biologic Bank and Cell Factory, IRCCS Policlinico San Martino, Genoa, Italy), GM-6114 (embryonic human fibroblast, ATCC, Manassas, VA, USA); MDA-MB231 (breast adenocarcinoma, Biologic Bank and Cell Factory, IRCCS Policlinico San Martino, Genoa, Italy); HeLa (cervical adenocarcinoma, Biologic Bank and Cell Factory, IRCCS Policlinico San Martino, Genoa, Italy); SK-BR3 (breast andenocarcinoma, Biologic Bank and Cell Factory, IRCCS Policlinico San Martino, Genoa, Italy); A549 (lung carcinoma, Biologic Bank and Cell Factory, IRCCS Policlinico San Martino, Genoa, Italy); HUVEC (Human Umbilical Vein Endothelial Cells, ATCC, Manassas, VA, USA). All cell lines were grown in their medium with 10% FBS, 2 mM Glutamine, and 1% penstrep and incubated at 37 °C in 5% CO2 in a humidified environment. The cell lines were plated in 96-well plates at an adequate number to reach 80–90% confluence at the end of the assay. 16 h after cell plating, a 10 mM DMSO stock solution of the compounds was diluted in growth medium and added at a final working concentration of 10 μM. After 48h of incubation, a 2 mg/mL PBS solution of MTT (3-(4,5-dimethyl-2-thiazolyl)-2,5-diphenyl-2H-tetrazolium bromide) was added (30 μL/well). After 4h, the supernatant was removed, and the Formazan precipitates were dissolved in DMSO (100 μL/well). The 96-well plates were incubated for 20 min, and absorbance was measured at 570 nm using a plate reader. The results are expressed as a percentage ratio over control samples (100%) in which the cells were incubated with the same amount of DMSO but without compounds. Each value is the mean of three independent experiments run in six replicates.

MDA-MB231 = test: MTT assay, antiproliferative activity; type: cell-based; details: for Mean growth percentage at 10 µM: Homo sapiens, MDA-MB-231, 48h
Method: as §1, §2

Hep-G2 = test: MTT assay, antiproliferative activity; type: cell-based; details: for Mean growth percentage at 10 µM: Homo sapiens, HepG2, 48h
Method: as §1, §2

A549 = test: MTT assay, antiproliferative activity; type: cell-based; details: 48h; for activity at 10 µM: Homo sapiens, read-out: Mean Growth Percentage
Method: as §1, §2

washed platelets [1] = test: ROS assay in platelets (DCFH-DA, thrombin-stimulated); type: cell-based, human; details: 0.1 U/mL thrombin, mean ± SD, read-out: IC50 ROS production inhibition
Method: (§3) The antioxidant properties of acylhydrazones 10–13 and pyrazolyl amides 14–22 were tested by evaluating their inhibition of platelet aggregation and ROS production (Figure 3, Table S1). In fact, human platelets could represent a fast and low-cost biological model to screen compounds as anticancer, anti-inflammatory, and antiaggregating agents. Moreover, ROS production inhibition, related to human platelet aggregation, could provide a good indication of the anti-inflammatory and antioxidant properties of the newly synthesized compounds [47, 50, 51, 52]. N-acetylcysteine (NAC) and acetyl salicylic acid (ASA) were used as reference drugs for antioxidant and antiaggregant activities, respectively.
(§4) Freshly drawn venous blood from healthy volunteers from “Centro Trasfusionale” (IRCCS Policlinico San Martino, Genoa, Italy) was collected into a 130 mM aqueous trisodium citrate anticoagulant solution (9:1). The donors claimed to not have taken drugs known to interfere with platelet function during the two weeks prior to blood collection and gave their informed consent. Whole blood was centrifuged at 100× g for 20 min to afford platelet-rich plasma that was then spun at 1100× g for 15 min. The obtained pellet was washed once with a pH 5.2 ACD solution (75 mM trisodium citrate, 42 mM citric acid, and 136 mM glucose), centrifuged at 1100× g for 15 min, and then re-suspended in pH 7.4 Hepes buffer (145 mM NaCl, 5 mM KCl, 1 mM MgSO4, 10 mM glucose, and 10 mM HEPES).
2′,7′-Dichlorofluorescein diacetate (DCFH-DA) and thrombin were purchased from Sigma-Aldrich/Merck Millipore. DMSO solutions of 10–22 were diluted in saline immediately before each experiment. ROS production was quantified by DCFH-DA, a ROS-sensitive probe that yields, upon oxidation, the fluorescent adduct DCF that is trapped inside the cells. Briefly, washed platelets (1.0 × 10^8/mL), pre-incubated with saline solutions of 10–22 for 15 min at 37 °C, were stimulated by 0.1 U/mL thrombin. Incubation was stopped by cooling samples in an ice bath, and then samples were immediately analyzed in a Merck Millipore Bioscience Guava easyCyte flow cytometer (Merk Millipore, Burlington, MA, USA). The reported IC50 values represent the molar concentration of the compounds able to inhibit 50% of the maximal aggregation induced by the agonist and are calculated as the percentage inhibition of the maximal aggregation measured in the presence of the agent compared with the measure in a control sample containing saline, carried out under the same conditions. The IC50 values were extrapolated from nonlinear regression analysis of concentration–response curves (three points) using MS Excel software (Microsoft 365 suite). Each IC50 value is the mean of six independent experiments.

washed platelets [2] = test: Platelet aggregation (thrombin-induced, Born's method); type: cell-based; details: Homo sapiens, 0.1 U/mL thrombin, mean ± SD, read-out: IC50 Aggregation inhibition
Method: as §3, §4
Thrombin was purchased from Sigma-Aldrich/Merck Millipore. A DMSO solution of compounds 10–22 was diluted in saline immediately before each experiment and added to the washed platelets (3.0 × 10^8/mL) at 37 °C. After 3 min, 0.1 U/mL thrombin was added, and platelet aggregation was quantified according to Born’s method using a Bio-Data Aggregometer (Bio-Data Corporation, Horsham, PA, USA). The IC50 values were calculated as detailed above.

MCF7 = test: MTT assay, antiproliferative activity; type: cell-based; details: 10 µM, 48h; for mean growth percentage (cell growth remaining vs control) at 10 µM: Homo sapiens
Method: as §1, §2
(§5) Each IC50 value is the mean of three independent experiments run in duplicate.

HeLa = test: MTT assay, antiproliferative activity; type: cell-based; details: 10 µM, 48h; for activity at 10 µM: Homo sapiens, read-out: Mean Growth Percentage
Method: as §1, §2, §5

SKMEL28 = test: MTT assay, antiproliferative activity; type: cell-based; details: 48h; for Mean growth percentage at 10 µM: Homo sapiens, SK-MEL-28, 10 µM
Method: as §1, §2, §5

SKOV3 = test: MTT assay, antiproliferative activity; type: cell-based; details: 48h; for Mean growth percentage at 10 µM: Homo sapiens, SK-OV-3, 10 µM
Method: as §1, §2, §5

GM-6114 = test: MTT assay, cytotoxicity on normal fibroblasts; type: cell-based; details: human, 48 h, 10 µM

COc1ccc(/C=N/NC(=O)c2c(N)nn(C)c2Nc2ccccc2)cc1OC [11b, (E)-3-amino-N′-(3,4-dimethoxybenzylidene)-1-methyl-5-(phenylamino)-1H-pyrazole-4-carbohydrazide]
Mean growth percentage at 10 µM (SK-BR3): 86%
Mean growth percentage at 10 µM (MDA-MB231): 85.7%
Mean growth percentage at 10 µM (Hep-G2): 116%
activity at 10 µM (A549): 94.8%
IC50 (washed platelets [1]; Homo sapiens, Platelet): 113 ± 7 µM
IC50 (washed platelets [2]): 129 ± 10 µM
mean growth percentage (cell growth remaining vs control) at 10 µM (MCF7): 94.8%
activity at 10 µM (HeLa): 99.5%
Mean growth percentage at 10 µM (SKMEL28): 93%
Mean growth percentage at 10 µM (SKOV3): 100%
Mean Growth Percentage (GM-6114): 104.95%

CCOC(=O)c1c(NC(=O)c2ccc(OC)cc2)n[nH]c1Nc1ccccc1 [compound 15, Ethyl 3-(4-methoxybenzamido)-5-(phenylamino)-1H-pyrazole-4-carboxylate]
Mean growth percentage at 10 µM (SK-BR3): 99.8%
Mean growth percentage at 10 µM (MDA-MB231): 130%
Mean growth percentage at 10 µM (Hep-G2): 85.5%
activity at 10 µM (A549): 67.9%
IC50 (washed platelets [1]; Homo sapiens, Platelet): 323 ± 14 µM
IC50 (washed platelets [2]): 250 ± 19 µM
melting point: 155 to 157 °C
mean growth percentage (cell growth remaining vs control) at 10 µM (MCF7): 65.9%
activity at 10 µM (HeLa): 105%
Mean growth percentage at 10 µM (SKMEL28): 71.7%
Mean growth percentage at 10 µM (SKOV3): 88.4%
Mean Growth Percentage (GM-6114): 68.40%

COc1ccc(/C=N/NC(=O)c2c(Nc3ccccc3)nn(C)c2N)cc1Oc1ccccc1 [12c, (E)-5-amino-N′-(4-methoxy-3-phenoxybenzylidene)-1-methyl-3-(phenylamino)-1H-pyrazole-4-carbohydrazide]
Mean growth percentage at 10 µM (SK-BR3): 82.1%
Mean growth percentage at 10 µM (MDA-MB231): 100%
Mean growth percentage at 10 µM (Hep-G2): 111%
activity at 10 µM (A549): 98.5%
IC50 (washed platelets [1]; Homo sapiens, Platelet): 193 ± 16 µM
IC50 (washed platelets [2]): 331 ± 14 µM
mean growth percentage (cell growth remaining vs control) at 10 µM (MCF7): 88.3%
activity at 10 µM (HeLa): 85.2%
Mean growth percentage at 10 µM (SKMEL28): 94.6%
Mean growth percentage at 10 µM (SKOV3): 104%
Mean Growth Percentage (GM-6114): 104.08%

CCOC(=O)c1c(NC(=O)c2ccc(Cl)cc2)nn(C)c1Nc1ccccc1 [compound 18, Ethyl 3-(4-chlorobenzamido)-1-methyl-5-(phenylamino)-1H-pyrazole-4-carboxylate]
Mean growth percentage at 10 µM (SK-BR3): 80.9%
Mean growth percentage at 10 µM (MDA-MB231): 141%
Mean growth percentage at 10 µM (Hep-G2): 78.5%
activity at 10 µM (A549): 69.6%
IC50 (washed platelets [1]; Homo sapiens, Platelet): 273 ± 17 µM
IC50 (washed platelets [2]): 268 ± 25 µM
melting point: 158 to 161 °C
mean growth percentage (cell growth remaining vs control) at 10 µM (MCF7): 63.5%
activity at 10 µM (HeLa): 91.5%
Mean growth percentage at 10 µM (SKMEL28): 68.4%
Mean growth percentage at 10 µM (SKOV3): 96.9%
Mean Growth Percentage (GM-6114): 72.99%

COc1ccc(/C=N/NC(=O)c2c(Nc3ccccc3)nn(CC(O)c3ccccc3)c2N)cc1 (centres unmarked) [13a, (E)-5-amino-1-(2-hydroxy-2-phenylethyl)-N′-(4-methoxybenzylidene)-3-(phenylamino)-1H-pyrazole-4-carbohydrazide]
Mean growth percentage at 10 µM (SK-BR3): 91.8%
Mean growth percentage at 10 µM (MDA-MB231): 96.4%
Mean growth percentage at 10 µM (Hep-G2): 85.9%
activity at 10 µM (A549): 94.5%
IC50 (washed platelets [1]; Homo sapiens, Platelet): 213 ± 17 µM
IC50 (washed platelets [2]): 883 ± 39 µM
mean growth percentage (cell growth remaining vs control) at 10 µM (MCF7): 81%
activity at 10 µM (HeLa): 83.7%
Mean growth percentage at 10 µM (SKMEL28): 81.8%
Mean growth percentage at 10 µM (SKOV3): 93.8%
Mean Growth Percentage (GM-6114): 99.43%

COc1ccc(/C=N/NC(=O)c2c(Nc3ccccc3)nn(C)c2N)cc1 [12a, (E)-5-amino-N′-(4-methoxybenzylidene)-1-methyl-3-(phenylamino)-1H-pyrazole-4-carbohydrazide]
Mean growth percentage at 10 µM (SK-BR3): 95%
Mean growth percentage at 10 µM (MDA-MB231): 97.9%
Mean growth percentage at 10 µM (Hep-G2): 111%
activity at 10 µM (A549): 97.1%
IC50 (washed platelets [1]; Homo sapiens, Platelet): 113 ± 7 µM
IC50 (washed platelets [2]): 265 ± 23 µM
mean growth percentage (cell growth remaining vs control) at 10 µM (MCF7): 88.5%
activity at 10 µM (HeLa): 94.8%
Mean growth percentage at 10 µM (SKMEL28): 76.2%
Mean growth percentage at 10 µM (SKOV3): 102%
Mean Growth Percentage (GM-6114): 100.38%

CC(=O)Oc1ccccc1C(=O)O [ASA, acetyl salicylic acid, reference compound]
IC50 (washed platelets [2]): 438 µM

COc1ccc(/C=N/NC(=O)c2c(N)nn(C)c2Nc2ccccc2)cc1Oc1ccccc1 [11c, (E)-3-amino-N′-(4-methoxy-3-phenoxybenzylidene)-1-methyl-5-(phenylamino)-1H-pyrazole-4-carbohydrazide]
Mean growth percentage at 10 µM (SK-BR3): 83.1%
Mean growth percentage at 10 µM (MDA-MB231): 93.4%
Mean growth percentage at 10 µM (Hep-G2): 113%
activity at 10 µM (A549): 91.7%
IC50 (washed platelets [1]; Homo sapiens, Platelet): 148 ± 13 µM
IC50 (washed platelets [2]): 841 ± 43 µM
mean growth percentage (cell growth remaining vs control) at 10 µM (MCF7): 84.5%
activity at 10 µM (HeLa): 101%
Mean growth percentage at 10 µM (SKMEL28): 87.6%
Mean growth percentage at 10 µM (SKOV3): 110%
Mean Growth Percentage (GM-6114): 105.27%

CC(=O)N[C@@H](CS)C(=O)O [NAC, N-acetylcysteine, reference compound]
IC50 (washed platelets [1]): 872 µM

N.N.[Cl][Pt][Cl] [CisPt, cisplatin, reference compound]
Mean Growth Percentage (SK-BR3; 10 µM, 48h): 70.59%
Mean Growth Percentage (MDA-MB231; 10 µM, 48h): 86.07%
Mean Growth Percentage (Hep-G2; 10 µM, 48h): 38.07%
Mean Growth Percentage (A549; 10 µM): 59.09%
Mean Growth Percentage (MCF7): 72.74%
Mean Growth Percentage (HeLa): 29.33%
Mean Growth Percentage (SKMEL28; 10 µM): 44.40%
Mean Growth Percentage (SKOV3; 10 µM): 36.83%
